Literature values as cited in US11890366B2, “Method for dyeing keratin material, comprising the use of an organic C1-C6 alkoxy silane and a copolymer of styrene and maleic acid (anhydride)” (Henkel AG & Co. KGaA, priority 2019, dated 2024).

| solubility in water (25° C.) | Compound | also measured |
| --- | --- | --- |
|  | CCN(Cc1cccc(S(=O)(=O)[O-])c1)c1ccc(C(=C2C=CC(=[N+](CC)Cc3cccc(S(=O)(=O)[O-])c3)C=C2)c2ccccc2S(=O)(=O)[O-])cc1.[Na+].[Na+] [Acid Blue 9] | water solubility (25° C.): greater than 20 % by weight |
|  | O=C([O-])C1=NN(c2ccc(S(=O)(=O)[O-])cc2)C(=O)C1N=Nc1ccc(S(=O)(=O)[O-])cc1.[Na+].[Na+].[Na+] (centres unmarked) [Acid Yellow 23, trisodium salt of 4,5-dihydro-5-oxo-1-(4-sulfophenyl)-4-((4-sulfophenyl)azo)-1H-pyrazole-3-carboxylic acid] | solubility in water (in words) (water at 25° C.): readily soluble |
| 2500 µg/mL | Nc1cc(S(=O)(=O)[O-])cc2cc(S(=O)(=O)[O-])c(N=Nc3ccccc3)c(O)c12.[Na+].[Na+] [Acid Red 33, dinatrium salt of 5-amino-4-hydroxy-3-(phenylazo)-naphthalene-2,7-disulphonate] |  |
| more than 7 g/L | O=S(=O)([O-])c1ccc(N=Nc2c(O)ccc3ccccc23)cc1.[Na+] [Acid Orange 7, sodium salt of 4-[(2-hydroxy-1-naphthyl)azo]benzenesulfonate] |  |

| Compound | solubility in water (25° C.) | also measured |
| --- | --- | --- |
| O=C([O-])c1c(Cl)c(Cl)c(Cl)c(Cl)c1-c1c2c(Br)cc(=O)c(Br)c-2oc2c(Br)c(O)cc(Br)c12.O=C([O-])c1c(Cl)c(Cl)c(Cl)c(Cl)c1-c1c2c(Br)cc(=O)c(Br)c-2oc2c(Br)c(O)cc(Br)c12.[Na+].[Na+] [Acid Red 92, disodium salt of 3,4,5,6-tetrachloro-2-(1,4,5,8-tetrabromo-6-hydroxy-3-oxoxanthen-9-yl)benzoic acid] | greater than 10 g/L |  |
